Test results reported in the NIST ThermoML archive (doi:10.1021/je050031f).

Assays:
[1] = refractive index (Na D-line) (dimensionless); xn = mol fraction of the nth substance listed; conditions: 100.8 kPa, Liquid, Standard Abbe refractometry
[2] = xn = mol fraction of the nth substance listed; conditions: 100.8 kPa, Liquid; for viscosity: Capillary tube (Ostwald / Ubbelohde) method

CC1CCCCC1 [methylcyclohexane] + CC(C)OC(C)C
Conditions	mass density, 288.15 K [kg/m3]	mass density, 298.15 K [kg/m3]	mass density, 308.15 K [kg/m3]	refractive index, 288.15 K	refractive index, 298.15 K	refractive index, 308.15 K	viscosity, 288.15 K [mPa·s]	viscosity, 298.15 K [mPa·s]	viscosity, 308.15 K [mPa·s]
[1], x2 = 0	–	–	–	1.42578	1.42053	1.41537	–	–	–
[1], x2 = 0.0502	–	–	–	1.42321	1.41757	1.4125	–	–	–
[1], x2 = 0.1	–	–	–	1.42014	1.4146	1.40957	–	–	–
[1], x2 = 0.15	–	–	–	1.41715	1.41158	1.40663	–	–	–
[1], x2 = 0.2	–	–	–	1.41419	1.40859	1.40365	–	–	–
[1], x2 = 0.25	–	–	–	1.41129	1.40565	1.40068	–	–	–
[1], x2 = 0.3	–	–	–	1.40842	1.40277	1.39775	–	–	–
[1], x2 = 0.35	–	–	–	1.40558	1.3999	1.39484	–	–	–
[1], x2 = 0.4	–	–	–	1.40277	1.39707	1.39197	–	–	–
[1], x2 = 0.45	–	–	–	1.39999	1.39428	1.38912	–	–	–
[1], x2 = 0.5	–	–	–	1.39721	1.3915	1.38631	–	–	–
[1], x2 = 0.55	–	–	–	1.3945	1.38878	1.38356	–	–	–
[1], x2 = 0.6	–	–	–	1.3918	1.3861	1.38083	–	–	–
[1], x2 = 0.65	–	–	–	1.38914	1.38347	1.37818	–	–	–
[1], x2 = 0.7	–	–	–	1.38652	1.38082	1.37552	–	–	–
[1], x2 = 0.75	–	–	–	1.38392	1.37823	1.37286	–	–	–
[1], x2 = 0.8	–	–	–	1.38136	1.37565	1.37025	–	–	–
[1], x2 = 0.85	–	–	–	1.37883	1.37309	1.36765	–	–	–
[1], x2 = 0.9	–	–	–	1.37629	1.37053	1.36503	–	–	–
[1], x2 = 0.95	–	–	–	1.37377	1.36799	1.36243	–	–	–
[2], x2 = 0	773.4	765	756.3	–	–	–	0.784	0.685	0.6
[2], x2 = 0.0502	771.3	762.5	753.8	–	–	–	0.744	0.653	0.575
[2], x2 = 0.1	768.9	760.1	751.3	–	–	–	0.697	0.612	0.542
[2], x2 = 0.15	766.6	757.7	748.8	–	–	–	0.66	0.579	0.514
[2], x2 = 0.2	764.3	755.3	746.3	–	–	–	0.627	0.551	0.489
[2], x2 = 0.25	761.9	752.9	743.8	–	–	–	0.595	0.524	0.467
[2], x2 = 0.3	759.6	750.5	741.3	–	–	–	0.568	0.502	0.448
[2], x2 = 0.35	757.4	748.1	738.9	–	–	–	0.543	0.481	0.43
[2], x2 = 0.4	755.1	745.8	736.4	–	–	–	0.522	0.464	0.415
[2], x2 = 0.45	752.8	743.4	734	–	–	–	0.503	0.447	0.401
[2], x2 = 0.5	750.6	741.1	731.6	–	–	–	0.484	0.431	0.387
[2], x2 = 0.55	748.4	738.8	729.2	–	–	–	0.466	0.415	0.373
[2], x2 = 0.6	746.2	736.5	726.8	–	–	–	0.447	0.399	0.36
[2], x2 = 0.65	743.9	734.2	724.4	–	–	–	0.431	0.385	0.347
[2], x2 = 0.7	741.7	731.9	722	–	–	–	0.415	0.372	0.335
[2], x2 = 0.75	739.6	729.6	719.6	–	–	–	0.403	0.361	0.325
[2], x2 = 0.8	737.4	727.3	717.3	–	–	–	0.389	0.349	0.316
[2], x2 = 0.85	735.3	725.1	714.9	–	–	–	0.379	0.341	0.308
[2], x2 = 0.9	733.1	722.9	712.6	–	–	–	0.368	0.331	0.299
[2], x2 = 0.95	731	720.6	710.3	–	–	–	0.358	0.321	0.291
